Test results from patent publication US4153709A, “N-Heterocyclic ureas as immune regulants” (Eli Lilly and Company, priority 1977, dated 1979).
“And” between values parts separate entries of the source, which are not always exact repeats. Identical values can stand only once. Like-named read-outs stand apart in the source and are kept apart here.

Assays:
[1] = tested on: fatal glomerulonephritis in NZB/w mice; assay type: in vivo; conditions: for MST (mean survival time) / Percent Survivors: 300th day
Source text: NZB/w mice provide a close model of the human autoimmune disease, lupus erythematosis. These hybrid mice develop antinuclear antoantibody in the early months of life, which antibody becomes deposited in the glomeruli in the form of a complex with the inciting antigen. A fatal glomerulonephritis ensues. A group of these mice had been placed under continuous therapy (via the feed) with 1-(6-methoxy-2-benzothiazolyl)-3-) phenyl urea for 300 days. The mice were divided into three subgroups, 10 mice receiving 75 mg/kg/day of drug, 10 mice receiving 25 mg/kg/day, and 11 mice serving as untreated controls.
In view of the close parallel of this murine model to the human counterpart, this would appear of significance in terms of long-term human therapy.

[2] = tested on: twelve histidine-auxotrophs of Salmonella typhimurium; assay type: in vivo, Salmonella typhimurium in Cox white Swiss male mice; conditions: 300 mg/kg
Procedure: The in vivo and in vitro mutagenic potential of 1-(6-methoxy-2-benzothiazolyl)-3-phenyl-urea was negative when tested versus the twelve histidine-auxotrophs of Salmonella typhimurium at a level of 300 mg/kg in vivo and 750 mcg/ml in vitro. Imuran and Cytoxan, compounds with immunosuppressive activity; Streptozotacin, N-nitrosodimethylamine (DMNA) and trimethylenemelamine (TEM) known mutagens and/or carcinogens; and Acetylsalicylic Acid (ASA) were used as control compounds.
A. Drug Administration: Appropriate solvents were used where applicable with a solvent control run within each test. The compounds to be tested were given either subcutaneously along the backbone of the mouse (0.1 ml.) or by oral gavage (0.5 ml.) B. Inoculation Technique: The histidine- cultures G46, C209, C3076, and D3056 used as the TA15 series have lost pathogenicity to mice because of absence or decrease in the lipopolysaccharide coat. The organisms were grown to stationary phase, then diluted with normal saline to give an inoculum near 1×10^8 organisms per milliliter. The abdominal area of the drug-treated mouse was swabbed with alcohol and two milliliters of bacterial culture were injected into the abdominal cavity of the mouse. The mice were returned to their cages for 3-4 hours.
C. Autopsy and Recovery: The mice were sacrificed individually by cervical dislocation prior to each autopsy. […]

[3] = tested on: Salmonella typhimurium G46 missense histidine-auxotroph; assay type: cell-based; conditions: 750 mcg/ml
Procedure: Compounds found active in the qualitative test were further tested. The culture to be tested was grown to stationary phase in tryptone yeast broth and then diluted to a viable count of about 9×10^7 organisms per milliliter.
Eleven log4 dilutions of the test compound were made covering a range that would allow survival of nonlethal mutants. The dilutions were made in Spizizen's minimal media with minute amounts of histidine and biotin (20 nM) each in […]. tubes. Each tube contained 3 ml. after dilution. Replicate 1 ml. aliquots of test organism were added to each tube including six "0" drug tubes. Final drug concentrations were calculated from 4-ml. volumes (3 ml. drug dilution +1 ml. test organism). Two of the "0" drug tubes were immediately plated at 10° dilution in minimal medium and 10^-5, 10^-6, 10^-7 dilutions in medium containing excess histidine (40 mcg/ml.) Spontaneous revertants (histidine+) were detected in the 10° dilution. Mutable population (histidine-) were detected in the 10^-5, 10^-6, and 10^-7 dilutions. All remaining dilutions were incubated in a Dubonoff shaker at 37° C. for 4 hr., then iced at 4° C. […] A 1-ml. aliquot from each "0" control was also plated at 10^-6, 10^-7, and 10^-8 dilutions in media with excess histidine to detect growth of mutable population (histidine-); normally there are 3-4 generations of the mutable population. All minimal media plates were counted. A dose response increase in revertants above spontaneous background indicated mutagenic potential of a test compound. […] Lethality has occurred to both populations, histidine+ and histidine-, at the same compound levels in all drugs tested to date.
The results are recorded as mutants test/mutants control.

[4] = tested on: graft versus host reaction; experiment: Graft versus host (GVH) reaction, spleen weight (Tables 20, 21); assay type: in vivo, mice (C57BL donors, F1 hybrid C57BL×C3H recipients)
Procedure: In this determination, […] (C57BL) mouse spleen cells are injected into mice of an F1 hybrid strain (C57BL×C3H). […] The injected cells, however, mount a reaction to the recipient's tissues due to the foreign C3H-derived antigens. As a consequence, the recipient's spleen becomes enlarged. Immunosuppressive therapy prevents or reduces this enlargement. Thus, spleen weights provide a measure of the GVH reaction and its reduction under immunosuppression.
Treated and GVH control animals receive an intraperitoneal injection of 1.2×10^9 splenic lymphocytes from the C57 donors. Spleens are weighed ten days later. Spleen weights derived from groups of recipient mice receiving genetically homologous, i.e., syngeneic cells (C57BL×C3H) provide normal control values for calculating percent inhibition in drug-treated groups. For example, mice given 13 daily topical doses of 1-(4,5,6,7-tetra-hydro-2-benzothiazolyl)-3-phenyl urea show a 62% reduction in GVH reaction relative to controls, as set forth in Table 20.
Using this procedure, three compounds from the above useful in the processes of this invention have been compared with several reference immunosuppressive drugs. Treatment levels defining the 50 percent inhibitory dose have been determined.

[5] = tested on: antibody to sheep red blood cells; experiment: Oral immunoregulating activity in marmosets (Table 17); assay type: in vivo
Procedure: The animals in the treated group received 10 daily 100 mg/kg doses of the drug by oral gavage. On the 4th treatment day, these animals and a similar group of controls were given intraperitoneal injections of 1×10^9 sheep red blood cells. On the 12th day following antigen injection, serum levels of antibody were determined.
*Notation: Day 0 = day of antigen injection, Day -1 = day previous, Day +

[6] = tested on: Salmonella typhimurium G46 missense histidine-auxotroph; experiment: Qualitative in vitro prescreen for mutagenicity, G46 indicator (Table 22); conditions: 200 mcg disc
Source text: Filter paper discs 1/4" were impregnated with 200 mcg of test compound using either H2 O or DMSO as solvent. The discs were placed on Petri dishes containing minimal media which had been individually seeded with one of the twelve tester strains. […] A uniform circle of colonies appear around the pad when a compound with mutagenic potential is present. The test compound forms a concentration gradient as it diffuses from the pad. Occasionally, there is a clear ring in close proximity to the pad surrounded by a uniform circle of revertant colonies which indicates a lethal mutation at high concentration of compound and nonlethal mutation at lesser concentration. A single pad thus allows one to test a compound over a wide range of concentrations. Histidine+ colonies were developed enough to read after 48 hr. incubation at 37° C. The plates were read as follows:
A. background zone, if present, is measured in millimeters, if not, a negative is recorded (-).
B. mutant zone is measured in millimiters, if present; if not, a negative (-) is recorded.
C. the mutation frequency can be estimated from density of mutant colonies as follows:
1. Low frequency--few colonies
2. Moderate frequency--many colonies
3. High frequency--dense ring of colonies
4. No colonies recorded (-)

[7] = 10 daily 100 mg/kg doses oral, individual marmoset, 100 mg/kg

COc1ccc2nc(NC(=O)Nc3ccccc3)sc2c1 [Table 11: phenyl, 6-CH3 O, S, 1-(6-methoxy-2-benzothiazolyl)-3-phenyl urea]
MST (mean survival time) ([1]; 25 mg/kg/day in feed): 214 days | Percent Survivors ([1]; 25 mg/kg/day in feed): 60% | Day of Death ([1]; 75 mg/kg/day in feed, 10 mice, 300 days): 180,281 | MST (mean survival time) ([1]; 75 mg/kg/day in feed): 286 days | Percent Survivors ([1]; 75 mg/kg/day in feed): 80% | effect on survival parameters ([1]; 300 days of therapy, 25 and 75 mg/kg/day): A dose-related effect of the drug on survival parameters | effect on life span ([1]; female NZBxW mice): able to prolong the life of female NZBxW mice | in vivo mutagenic potential [2]: negative | IN VITRO QUANTITATIVE MT/MC [3]: .90 | Percent GVH Inhibition ([4]; 1 mg/kg × 13, s.c.): 22% | Percent GVH Inhibition ([4]; 2 mg/kg × 13, s.c.): 58% | detectable antibody response ([5]; 10 daily 100 mg/kg doses by oral gavage, 12th day following antigen, control four out of five): none of the treated marmosets showed a detectable response | Weight Change (%) Day +6 to +19 [5, 7]: -6.8% and +9.1% and +6.0% and +5.7% | Weight Change (%) Day -7 to +6 [5, 7]: -18.8% and -6.2% and -21.4% and -5.7% and -8.2% | Antibody Titer (reciprocal) Day +12 ([5]; 10 daily 100 mg/kg doses oral, individual marmoset, Day 0 = antigen injection): < 5 | animals gaining weight by the 19th day ([5]; 10 daily 100 mg/kg doses oral, treated group): four of the five animals were gaining weight | IN VITRO QUALITATIVE ACTIVITY [6]: N
